Data from patent US10548829B2, “Oral care compositions and methods of use” (priority 2016, dated 2020).

Assays:
[1] = system: Aggregatibacter actinomycetemcomitans; assay: Growth inhibition (OD610), single culture; type: cell-based; conditions: A. actinomycetemcomitans
Method: (§1) Single species of Streptococcus gordonii (S. gordonii, S.g) strain V288 (ATCC #35105), Streptococcus sobrinus (S. sobrinus, S.$) strain SL1[CCM 6070, CNCTC 9/89] (ATCC #33478), or Aggregatibacter actinomycetemcomitans were analyzed. Also, a mixed culture containing Actinomyces viscosus (A. viscosus, A.v) strain (ATCC, #43146), Lactobacillus casei (L. casei, L.c) strain (ATCC #334), Streptococcus oralis (S. oralis, S. o) strain (ATCC #35037), Fusobacterium nucleatum (F. nucleatum, F. n) strain (ATCC #10953), and Veilonella parvula (V. parvula, V. p) strain (ATCC #17745) was also analyzed for growth inhibition/toxicity activity. Bacteria were cultured overnight in approximately 20 ml of BHI broth (BD, cat #237500) or maintained in a specialized complex modified BHI II medium in a continuous culture chemostat at 37° C. respectively. The following day, the OD610 were determined and solutions diluted to an OD610 of 0.2 or 0.1 respectively for the assay.
(§2) Triclosan (positive control) was prepared as a 10% stock in 100% EtOH and 3 fold serial dilutions were performed in 100% EtOH. An appropriate amount of the diluted samples was then transferred into a 96 well clear plate such that the resulting final concentration of the test samples ranged from either a 2 mM or 4 mM (highest concentration) to 0.0078 mM or 0.0156 mM (lowest concentration respectively) in 2% DMSO in 100 μl media per well. Triclosan (TCN) ranged from 0.01% to 1.67e-6% in 1% EtOH. For Zinc acetate, in order to mimic the 2:1 molar ratio (ligand:Zinc) in the Naringin:Zinc complex, the final concentration ranged from 0.7 mM to 0.0027 mM for samples with 2 mM as the highest concentration and 1.33 mM to […] for samples with 4 mM as the highest concentration in 2% DMSO. Next, 100 μl of bacterial culture at OD610 0.2 were introduced to the wells with the test samples. The wells were thoroughly mixed and incubated at 37° C. overnight. The plates were read using an Envision plate reader (PerkinElmer, Waltham, Mass.) at 610 nm.
(§3) The IC50 for the complex, Product 5, was determined for Streptococcus gordonii (S. gordonii), Streptococcus sobrinus (S. sobrinus), Aggregatibacter actinomycetemcomitans (A. actinomycetemcomitans), and also for the mixed bacterial culture. […] Triclosan (TCN) was included as a positive control for bacterial inhibition.
(§4) Further characterization was performed on planktonic oral microbes; Streptococcus sobrinus (Cariongenic—strain-SL1[CCM 6070, CNCTC 9/89] (ATCC cat. #33478), Streptococcus gordonii (Arginolytic—strain V288 (ATCC cat. #35105), Actinomyces viscosus) as well late colonizer (Gram −), pathogenic Aggregatibacter actinomycetemcomitans. All microbes were grown in their respective culture media: Streptococcus sobrinus and Streptococcus gordonii in BHI broth (BD, cat #237500), Aggregatibacter actinomycetemcomitans in BHI broth supplemented with 0.5% Yeast Extract (BD, cat #210941) and Actinomyces viscosus in Trypticase Soy Broth (BD, cat #211768) supplemented with 0.5% Yeast Extract (BD, cat #210941). Bacteria were cultured overnight in 37° C., 5% CO2 in approximately 20 ml of the appropriate culture broth. The following day, the OD610 was determined and solutions were diluted to 0.2 for the assay.
(§5) Triclosan (positive control) was prepared as a 10% stock in 100% EtOH and 3 fold serial dilutions were done in 100% EtOH. […] For Naringin+Zinc combination, while the highest total overall concentration was 2 mM, the exact concentration was Naringin (1.3 mM) and Zinc Acetate (0.7 mM) due to the compositions 2:1 molar ratio. For Zinc Acetate, in order to mimic the 2:1 ratio (ligand:Zinc) composition as in the complex, the final concentration ranged from 0.7 mM to 0.0027 mM in 2% DMSO.
(§6) A 100 μl aliquot of bacterial culture at OD610 0.2 were introduced to the wells with the test samples. The wells were thoroughly mixed and plates incubated overnight in a 37° C. incubator with or without 5% CO2 depending upon the bacterial species.

Streptococcus gordonii = assay: Growth inhibition (OD610), single culture; type: cell-based
Method: as §1, §2, §3, §4, §5, §6

Streptococcus sobrinus = assay: Growth inhibition (OD610), single culture; type: cell-based
Method: as §1, §2, §3, §4, §5, §6

Actinomyces viscosus = assay: Growth inhibition (OD610), single culture; type: cell-based; conditions: A. viscosus
Method: as §4
(§7) Test samples (Naringin, Naringin:Zinc complex and Naringin+Zinc Acetate (combination)) were prepared as a 100 mM stock solution followed by 2 fold serial dilution in 100% DMSO. Triclosan (positive control) was prepared as a 10% stock in 100% EtOH and 3 fold serial dilutions were done in 100% EtOH. […]
(§8) After approximately 12-13 hours of treatment, the plate was read at 610 nm using an Envision plate reader (PerkinElmer, Waltham, Mass.). The % inhibition relative to control was determined as follows: […]

S. gordonii/S. sobrinus = assay: Growth inhibition (OD610), co-culture; type: cell-based, S. gordonii and S. sobrinus
Method: as §4, §7, §8

S. sobrinus/A. viscosus = assay: Growth inhibition (OD610), co-culture; type: cell-based, S. sobrinus and A. viscosus
Method: as §4, §7, §8

[2] = system: A. actinomycetemcomitans/A. viscosus; assay: Growth inhibition (OD610), co-culture; type: cell-based, A. actinomycetemcomitans and A. viscosus
Method: as §4, §7, §8

[3] = system: planktonic oral bacterial species (S. sobrinus, S. gordonii, A. actinomycetemcomitans, A. viscosus, mixed cultures); assay: Growth inhibition, summary statements over the single, co- and mixed cultures tested; type: cell-based, oral bacteria; conditions: for inhibition of single species, co-cultures and mixed cultures (in words): concentrations of Tables 7-12
Method: as §1, §2, §3, §4, §5, §6

[4] = 0.5 mM (combination 0.5 mM total)

SMILES | inhibition at 500 µM ([1]; Aggregatibacter actinomycetemcomitans, 0.5 mM (combination 0.325 mM + 0.175 mM, 0.5 mM total)) [%] | inhibition at 500 µM (Streptococcus gordonii; Streptococcus gordonii, S. gordonii, 0.5 mM (combination 0.325 mM + 0.175 mM, 0.5 mM total)) [%] | inhibition at 500 µM (Streptococcus sobrinus; Streptococcus sobrinus, S. sobrinus, 0.5 mM (combination 0.325 mM + 0.175 mM, 0.5 mM total)) [%] | inhibition at 500 µM (Actinomyces viscosus; Actinomyces viscosus, 0.5 mM (combination 0.325 mM + 0.175 mM, 0.5 mM total)) [%] | inhibition at 500 µM (S. gordonii/S. sobrinus; [4]) [%] | inhibition at 500 µM (S. sobrinus/A. viscosus; [4]) [%] | inhibition at 500 µM [2, 4] [%] | antimicrobial effect on bacterial species tested (in words) ([3]; all concentrations tested, cultured alone or as co-cultures) | inhibition of single species, co-cultures and mixed cultures (in words) [3] | % Inhibition ([1]; 0.175 mM) [%] | % Inhibition (Streptococcus gordonii; S. gordonii, 0.175 mM) [%] | IC50 (Streptococcus gordonii; Streptococcus gordonii, overnight at 37° C., read-out: IC50) [µM] | % Inhibition (Streptococcus sobrinus; S. sobrinus, 0.175 mM) [%] | IC50 (Streptococcus sobrinus; Streptococcus sobrinus, overnight at 37° C., read-out: IC50) [µM] | % Inhibition (Actinomyces viscosus; 0.175 mM) [%] | % Inhibition (S. gordonii/S. sobrinus; 0.175 mM) [%] | % Inhibition (S. sobrinus/A. viscosus; 0.175 mM) [%] | % Inhibition ([2]; 0.175 mM) [%] | IC50 range over cultures tested, corresponding ppm ([3]; S. sobrinus, S. gordonii, A. actinomycetemcomitans and mixed chemostat cultures) | IC50 ([3]; S. sobrinus, S. gordonii, A. actinomycetemcomitans and mixed chemostat cultures, read-out: concentration that inhibited 50% of the bacterial growth (IC50), range over cultures tested) [µM]
C[C@@H]1O[C@@H](O[C@H]2[C@H](Oc3cc(O)c4c(c3)O[C@H](c3ccc(O)cc3)CC4=O)O[C@H](CO)[C@@H](O)[C@@H]2O)[C@H](O)[C@H](O)[C@H]1O [Naringin] | 5.01 ± 1.69 | 0.96 ± 2.82 | -2.64 ± 2.54 | -3.5 ± 4.1 | -6.84 ± 1.19 | -3.79 ± 7.15 | -0.03 ± 2.02 | did not show detectable antimicrobial effect | little to no detectable inhibition |  |  |  |  |  |  |  |  |  |  | 
CC(=O)[O-].CC(=O)[O-].[Zn+2] [Zinc Acetate alone, Zinc (II) Acetate] |  |  |  |  |  |  |  |  | little to no detectable inhibition | 29.24 ± 0.42 | 13.51 ± 10.18 | 300 ± 20 | −1.05 ± 3.10 | 290 ± 40 | −1.84 ± 5.86 | 1.55 ± 0.24 | 2.46 ± 6.58 | 4.13 ± 6.89 | 45.9-317.5 ppm | 250 to 1730
